Like-named read-outs stand apart in the source and are kept apart here.
Columns and labels:
human M2R = target: T1, human M2R (Homo sapiens, UniProt P08172); experiment: GloSensor cAMP assay (Gi-mediated cAMP inhibition); format: cell-based; settings: M2, agonist, N.A. = not active; for IC50: read-out: pIC50/pEC50 (Mean ± SEM) M2 (converted)
T1 construct: expressed in transfected cells; host or cells: HEK-293T
T1 sequence (P08172 1-466): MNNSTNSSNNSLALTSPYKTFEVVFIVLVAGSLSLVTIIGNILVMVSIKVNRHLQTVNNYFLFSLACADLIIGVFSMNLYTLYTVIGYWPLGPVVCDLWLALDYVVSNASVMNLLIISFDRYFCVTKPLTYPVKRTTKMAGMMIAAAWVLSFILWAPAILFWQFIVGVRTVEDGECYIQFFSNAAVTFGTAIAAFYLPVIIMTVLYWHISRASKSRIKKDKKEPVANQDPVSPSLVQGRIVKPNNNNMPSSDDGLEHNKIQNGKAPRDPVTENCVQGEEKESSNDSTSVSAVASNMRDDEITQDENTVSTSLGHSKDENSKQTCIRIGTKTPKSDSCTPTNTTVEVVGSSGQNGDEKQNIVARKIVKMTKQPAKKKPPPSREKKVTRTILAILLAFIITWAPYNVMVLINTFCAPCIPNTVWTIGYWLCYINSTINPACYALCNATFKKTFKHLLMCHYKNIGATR
Experimental: To measure M2 muscarinic receptor induced (Gi-mediated) cAMP inhibition, HEK-293T cells (procured from NCCS, Pune) were co-transfected with human M2R and luciferase based cAMP biosensor (pGloSensor™-22F plasmid; Promega) using PEImax method of transfection in the ratio of 1:1. The transfected cells were incubated at 37° C. in tissue culture incubator with 5% CO2 for 14-16 hours. For GloSensor cAMP assay, after overnight incubation, media from the plate was aspirated and 100 μl of sodium luciferin solution in drug buffer (1×HBSS (pH7.4) and 20 mM HEPES) was added to the cell plates. The plates were then incubated at 37° C. in tissue culture incubator with 5% CO2 for 90 minutes. After incubation, cells were treated with 20 μl of 6× diluted standard carbamoyl choline (10000 nM to 0.01 nM) along with test compounds (in triplicates) and were incubated in a humidified tissue culture incubator at 37° C. with 5% CO2 for 10-15 minutes to get a steady state condition. Ligand incubation was followed by addition of 20 μl of 7×(70 μM) forskoline (FSK) to the plate. FSK incubation was followed by incubation at 37° C. for 10-15 minutes and measurement of luminescence per well using luminescence plate reader (BMG Labtech). The results were plotted as inhibition of FSK stimulated cAMP response (relative luminescence units) using nonlinear regression analysis by Graph-Pad prism V.

human M3R = target: T2, human M3R (Homo sapiens, UniProt P20309); experiment: NFAT-luciferase assay, M3; format: cell-based; parameters: IC50 activity, M3 muscarinic receptor antagonist: unit not given beside the values; settings: for selectivity among muscarinic receptors (in words): M1, M3 and M5 antagonist profiling; for effectiveness relative to known drug darifenacin at M3: compared with darifenacin 8.9 pKi
T2 construct: expressed in transfected cells; host or cells: HEK-293T
Experimental: (§1) To measure the agonist or antagonist activity at M1, M3 and M5 muscarinic receptor, NFAT-luciferase activity was performed in HEK-293T cells (procured from NCCS, Pune) by co-transfecting with human M1R or M3R or M5R and pGL4.30 (luc2P/NFAT-RE/Hygro; Promega Corp,) in 96 well format. The transfected cells were incubated at 37° C. in tissue culture incubator with 5% CO2 for 14-16 hours. To determine the if the test compounds are agonist, the transfected cells were treated with either 20 μl/well of carbamoyl choline (as a positive control) at various concentrations (10000 nM to 0.01 nM) or with various concentrations of test compounds (in triplicates) and were further incubated for 12 hrs in a humidified tissue culture incubator at 37° C. with 5% CO2. For antagonist mode assay, test compound incubation was followed by addition of 20 μl of 7 μM carbamoylcholine (agonist) to the plate. Following 12-14 hrs of drug treatment, media from the plate was aspirated and 100 μl of sodium luciferin solution (10 mg/ml) was added and luminescence per well was recorded using luminescence plate reader (BMG Labtech).

human M1R = target: T3, human M1R (Homo sapiens, UniProt P11229); experiment: NFAT-luciferase assay, M1; format: cell-based; settings: antagonist
T3 construct: expressed in transfected cells; host or cells: HEK-293T
T3 sequence (P11229 1-460): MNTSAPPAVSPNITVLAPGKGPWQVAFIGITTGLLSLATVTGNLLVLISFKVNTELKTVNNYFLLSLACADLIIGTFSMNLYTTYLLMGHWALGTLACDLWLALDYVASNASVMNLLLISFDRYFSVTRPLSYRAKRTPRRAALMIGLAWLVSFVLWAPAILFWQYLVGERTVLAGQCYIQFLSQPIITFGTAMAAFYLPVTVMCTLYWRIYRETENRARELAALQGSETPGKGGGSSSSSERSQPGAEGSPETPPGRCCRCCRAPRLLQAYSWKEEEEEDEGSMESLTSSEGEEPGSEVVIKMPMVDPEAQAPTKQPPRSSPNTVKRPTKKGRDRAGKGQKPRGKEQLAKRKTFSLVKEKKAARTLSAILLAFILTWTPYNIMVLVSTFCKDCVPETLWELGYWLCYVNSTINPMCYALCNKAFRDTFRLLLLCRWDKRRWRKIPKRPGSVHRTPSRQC
Experimental: as §1

[1] = system: Scopolamine induced memory deficit; experiment: Novel object recognition (NOR) test, scopolamine induced memory deficit; format: in vivo, mice; settings: scopolamine alone 0.5 mg/kg i.p., vs vehicle, p<0.05
Source text: (§2) All animal experiments and procedures were executed in accordance with the guidelines established in the guide for the care and use of laboratory animals and were approved by the institutional animal ethics committee (IAEC) of CSIR-Central Drug Research Institute, Lucknow, India. In this study, male C57BL/6J mice (6-8 weeks old) weighing 22-25 g were used. They were housed on a 12-h light/dark cycle (lights on at 8.00 am) and food and water were provided ad libitum. Animals were acclimatized to the experimental room 30 minutes prior to the beginning of behavioral procedures. For experimental purpose, animals were randomly divided into four groups: vehicle, RG-02, scopolamine and scopolamine along with RG-02. In scopolamine along with RG-02 group, RG-02 (10 mg/kg, i.p) was injected thirty minutes prior to the scopolamine (0.5 mg/kg, i.p.) injections.
The NOR test was performed according to the protocol introduced by Ennaceur and Delacour (Ennaceur & Delacour, 1988) with slight modification.
The NOR task procedure consisted of three sessions—[…], familiarization and test session. During habituation session, the mouse was placed in an open field (Square box of 40×40×40 cm), facing the wall of the arena, and allowed to explore the entire arena for 10 minutes. Following habituation period of 10 minutes, the mouse was returned to its home cage.
Between every […] session, the whole arena was cleaned with 10% ethanol to reduce olfactory cues. […] During this session, the test animal was placed in the arena and was allowed to explore the entire arena with familiar and novel object, and its activity was also video recorded. To determine the retention of object memory, the recorded videos of test session were analyzed by independent observer who was unknown to treatment of mice to calculate the time spent in exploring both objects. Data are presented as % time of exploration of familiar or novel object, and discrimination index was calculated as per following equation: (Tn−Tf)/Tt: Discrimination Index […]

[2] = system: Scopolamine induced memory deficit; experiment: Morris water maze (MWM) test, scopolamine induced learning deficit; format: in vivo, mice; settings: scopolamine alone 0.5 mg/kg i.p.
Source text: as §2
The Morris water maze (MWM) test was performed according to Morris 1984, with slight modifications. Circular pool of dimensions-100 cm diameter and 45 cm depth, which was filled up to 25 cm from bottom with white colour water. Temperature of water was adjusted to 24-25° C. Pool was divided into four quadrants and a square platform of 10×10 cm in was placed into the tank at a fixed location in the centre of one of the four imaginary quadrants. Training sessions were conducted for 3 consecutive days and on 4th day a probe trial was performed. During training session, mouse was gently placed into the water facing the edge of the pool of one of the quadrant. If the mouse was able to find the platform before the 60 sec cut-off, it was allowed to stay over the platform for 5 more seconds followed by returning to its home cage. […] Total three trials/day were run for each mouse with minimum interval of 10-15 minutes between two trials, and latency to reach the platform was calculated. On the fourth day, for the probe trial, the platform was removed and the time spent in respective quadrant was calculated.

[3] = M3, antagonist, N.A. = not active, read-out: pIC50/pEC50 (Mean ± SEM) M3 (converted)

T2 sequence (P20309 whole entry): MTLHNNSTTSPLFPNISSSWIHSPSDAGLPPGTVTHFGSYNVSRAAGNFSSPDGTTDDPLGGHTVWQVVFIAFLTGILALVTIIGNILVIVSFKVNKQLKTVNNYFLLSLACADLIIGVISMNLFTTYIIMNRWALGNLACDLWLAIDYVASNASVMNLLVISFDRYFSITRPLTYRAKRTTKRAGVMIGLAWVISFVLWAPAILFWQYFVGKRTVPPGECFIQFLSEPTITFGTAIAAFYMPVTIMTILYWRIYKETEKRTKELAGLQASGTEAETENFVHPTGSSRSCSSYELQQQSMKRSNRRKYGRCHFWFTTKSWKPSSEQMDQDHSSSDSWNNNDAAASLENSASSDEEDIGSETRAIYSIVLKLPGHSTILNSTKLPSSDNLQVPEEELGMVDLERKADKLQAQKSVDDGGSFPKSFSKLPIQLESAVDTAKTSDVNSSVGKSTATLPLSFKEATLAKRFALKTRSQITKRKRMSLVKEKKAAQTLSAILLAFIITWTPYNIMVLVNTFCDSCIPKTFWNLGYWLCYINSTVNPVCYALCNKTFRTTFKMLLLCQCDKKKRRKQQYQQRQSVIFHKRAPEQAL

O=C1CCC[C@@H]2[C@@H]1C[C@@]1(S(=O)(=O)c3ccccc3)C(=O)[C@@H]3c4ccccc4[C@H]1N32 [(−)-RG-02, (−)-(4aS,6S,6aR,11S,12aR)-6-(phenylsulfonyl)-1,2,3,4a,5,6,6a,12a-octahydro-6,11-methanoisoindolo[2,1-a]quinoline-4,13(11H)-dione]
pIC50/pEC50 (Mean ± SEM) M2 (human M2R): 8.38 ± 0.35 (agonist)

COC(=O)[C@@H]1c2ccccc2[C@@H]2[C@H](S(=O)(=O)c3ccccc3)C[C@@H]3C(=O)CCC[C@H]3N12 [RG-04, (4aS,6R,6aR,11S,12aR)-methyl 4-oxo-6-(phenylsulfonyl)-1,2,3,4,4a,5,6,6a,11,12a-decahydroisoindolo[2,1-a]quinoline-11-carboxylate]
IC50 (human M2R): 566 nM

CCOC(=O)[C@@H]1c2ccccc2[C@@H]2[C@H](S(=O)(=O)c3ccccc3)C[C@@H]3C(=O)CCC[C@H]3N12 [RG-05, (4aS,6R,6aR,11S,12aR)-ethyl 4-oxo-6-(phenylsulfonyl)-1,2,3,4,4a,5,6,6a,11,12a-decahydroisoindolo[2,1-a]quinoline-11-carboxylate]
IC50 (human M2R): 2160 nM

Cc1ccc(S(=O)(=O)[C@]23C[C@@H]4C(=O)CCC[C@H]4N4[C@H](C2=O)c2ccccc2[C@@H]43)cc1 [RG-06, (4aS,6S,6aR,11S,12aR)-6-tosyl-1,2,3,4a,5,6,6a,12a-octahydro-6,11-methanoisoindolo[2,1-a]quinoline-4,13(11H)-dione]
antagonist activity at M3 receptor (in words) (human M3R): high affinity antagonist of M3 receptor | selectivity among muscarinic receptors (in words) (human M3R): selective M3 muscarinic receptor antagonist | IC50 (human M3R; [3]): 0.129 nM | IC50 activity, M3 muscarinic receptor antagonist (human M3R; as worded in closing text): 9.89 | effectiveness relative to known drug darifenacin at M3 (human M3R): tenfold more effective

Cc1ccc(S(=O)(=O)[C@]23C[C@H]4C(=O)CC[C@H]4N4[C@H](C2=O)c2ccccc2[C@@H]43)cc1 [RG-09, (3aR,5S,5aR,10S,11aR)-5-tosyl-3a,4,5,5a,10,11a-hexahydro-1H-5,10-methanocyclopenta[5,6]pyrido[2,1-a]isoindole-3,12(2H)-dione]
antagonist activity at M3 receptor (in words) (human M3R): high affinity antagonist of M3 receptor | selectivity among muscarinic receptors (in words) (human M3R): selective M3 muscarinic receptor antagonist | IC50 (human M3R; as worded in closing text, read-out: IC50 activity, M3 muscarinic receptor antagonist (converted)): 0.102 nM | effectiveness relative to known drug darifenacin at M3 (human M3R): tenfold more effective

Cc1ccc(S(=O)(=O)[C@]23CC4=C(OS(=O)(=O)C(F)(F)F)CCC[C@H]4N4[C@H](C2=O)c2ccccc2[C@@H]43)cc1 [RG-13, (6S,6aR,11S,12aR)-13-oxo-6-tosyl-1,2,3,5,6,6a,11,12a-octahydro-6,11-methanoisoindolo[2,1-a]quinolin-4-yl trifluoromethanesulfonate]
IC50 (human M1R; M1, N.A. = not active, read-out: pIC50/pEC50 (Mean ± SEM) M1 (converted)): 871 nM | IC50 (human M1R; read-out: IC50 at M1 receptor): ≤ 1000 nM | antagonist activity at M3 receptor (in words) (human M3R): high affinity antagonist of M3 receptor | selectivity among muscarinic receptors (in words) (human M3R): nonselective muscarinic receptor antagonist | IC50 (human M3R; [3]): 0.107 nM

CN1[C@@H]2C[C@@H](OC(=O)[C@H](CO)c3ccccc3)C[C@H]1[C@@H]1O[C@@H]12 [scopolamine, reference compound]
exploration time for the novel object [1]: marked reduction in the exploration time for the novel object | latency to reach the platform ([2]; Day-3): increased latency to reach the platform | time in quadrant with platform (probe trial) ([2]; vs vehicle or RG-02): spent lesser time in quadrant with platform

From patent US11065235B2, “Substituted methanopyrido [2, 1-a] isoindolones as mAChR modulators for treating various associated pathophysiological conditions and process for preparation thereof” (COUNCIL OF SCIENTIFIC & INDUSTRIAL RESEARCH, priority 2017, dated 2021)
